Assay results: PubChem BioAssay (NCI)
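All cell lines were grown in 96-well plates and treated with compound for 48 hours. At the GI50, growth is halved. TGI: total growth inhibition.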

Tests used:
Assay in all cases: NCI-60 cell line screen, 48 h
DMS 273 small cell lung = tested on: DMS 273 small cell lung
HL-60(TB) leukemia = tested on: HL-60(TB) leukemia
IGROV1 ovarian = tested on: IGROV1 ovarian
SK-MEL-28 melanoma = tested on: SK-MEL-28 melanoma
UO-31 renal = tested on: UO-31 renal
HS 578T breast = tested on: HS 578T breast
NCI-H522 lung = tested on: NCI-H522 lung
NCI/ADR-RES ovarian = tested on: NCI/ADR-RES ovarian
T-47D breast = tested on: T-47D breast
LXFL 529 NSCLC = tested on: LXFL 529 NSCLC

SMILES	TGI (DMS 273 small cell lung) [µM]	TGI (HL-60(TB) leukemia) [µM]	TGI (IGROV1 ovarian) [µM]	TGI (SK-MEL-28 melanoma) [µM]	TGI (UO-31 renal) [µM]	GI50 (HL-60(TB) leukemia) [µM]	GI50 (HS 578T breast) [µM]	TGI (HS 578T breast) [µM]	GI50 (IGROV1 ovarian) [µM]	GI50 (NCI-H522 lung) [µM]	TGI (NCI-H522 lung) [µM]	GI50 (NCI/ADR-RES ovarian) [µM]	TGI (NCI/ADR-RES ovarian) [µM]	GI50 (SK-MEL-28 melanoma) [µM]	GI50 (T-47D breast) [µM]	TGI (T-47D breast) [µM]	GI50 (UO-31 renal) [µM]	TGI (LXFL 529 NSCLC) [µM]
O=C(C#Cc1c[nH]c(=O)[nH]c1=O)c1ccccc1Cl	38.8	48.1	35	32	38.5													
CN1CCN(CC#Cc2cccc(C(=O)c3cnn(-c4ccc(F)cc4)c3N)c2)CC1		> 25	> 25	> 25	> 25	24.6	> 25	> 25	> 25	> 25	> 25	> 25	> 25	> 25	> 25	> 25	> 25	
C=C1C(=O)O[C@H]2[C@H]1CC/C(CNC(=O)c1c[nH]c3ccc(F)cc13)=C\CC[C@@]1(C)O[C@@H]21		5.95	5.47	3.16	2.48	2.18	2.65	13.1	1.63	0.282	1.31	4.13	19.3	1.33	1.36	5.03	1.14	
N#Cc1c(-c2cccs2)c2c(=S)[nH]c(=S)[nH]c2[nH]c1=S		47.9	> 100	> 100	92.6	15.4	53.7	90.3	71.3	29.1	79	62	99.3	22.4	28.1	98.8	40.6	
COc1cc(/C=C\[N+](=O)[O-])ccc1O		6.31	6.97	4.59	3.25	2.39	4.71	28.8	2.61	1.3	3.02	2.84	7.95	1.95	2.33	9.95	1.48	
O=C(NNc1nc2c(F)cccc2n2cccc12)c1cnccn1		4.74	29.1	15.7	13.6	0.409	7.05	80.4	0.328	0.817	16.8	0.327	23.3	0.65	0.509	> 34.3	0.216	
CCOC(=O)CC1=Nc2ccccc2SC1	> 100		> 100	2.73	> 100						> 100							> 100
CC(CO)(CO)N=Cc1cc(I)cc(I)c1O		29.6	33.3	38.7	34.6			74			49.4		63.2			> 100		
N/C(CC(=O)Nc1cc(C(F)(F)F)ccc1Cl)=N\O		> 100	> 100	> 100	> 100			> 100			> 100		> 100			> 100		
Cc1cc([C@@H](C)Nc2ccccc2C(=O)O)c2nc(N3CCOCC3)cc(=O)n2c1		> 10	> 10	> 10	> 10	5.5	0.122	8.14	1.85	> 10	> 10	> 10	> 10	> 10	0.207	1.94	2.43	
CN=C(N)N/N=C(\c1ccccc1)c1ccc(Br)cc1		0.567	17.1	5.38	6.28	0.216	0.38	5.37	0.629	0.21	0.616	0.322	3.25	0.844	2.96	26.7	0.519	
FC(F)(F)c1nc(-c2ccccc2Cl)[nH]c1C(F)(F)F	3.03	1.22	8.97	5.32	2.15													3.73
N#Cc1c(NC(=O)c2cccc(C(F)(F)F)c2)sc2c1CCC(=O)C2		3.56	2.09	1.92	1.38	0.576	0.542	3.77	0.582	0.315	1.65	1.62	7.77	0.526	0.297	1.97	0.355	
COc1cc(-n2cc(-c3ccc(Cl)c(Cl)c3)nc2SCc2ccccc2)cc(OC)c1OC		> 100	> 100	> 100	> 100	> 100	> 100	> 100	> 100	44.8	> 100	> 100	> 100	> 100	> 100	> 100	> 100	
COc1cc(C(=O)NC2c3ccccc3-c3ccccc32)c(N)cc1OCc1ccccc1		> 100	> 100	> 92.7	> 100	> 71.7	14.5	79.1	34.3	34.7	> 100	35.3	> 100	25.2	29.5	> 100	30.2	
O=C(Nc1nc2ccccc2s1)OCC(F)(F)F		> 100	> 100	> 100	> 100	> 100	> 100	> 100	> 100	> 100	> 100	> 100	> 100	> 100	> 100	> 100	45.6	
Cc1cc2c(cc1C)[n+](=O)c(C(=O)C/C(=N/NC(=O)c1ccccc1O)C(=O)Nc1ccccc1C(C)C)c(C)n2[O-]	> 100	37.9	> 100	> 100							> 100							> 100
